Test results published in ChEMBL document CHEMBL3885881, “DrugMatrix”.

Species: Rattus norvegicus
Experiment: DrugMatrix - Regimen: Daily Repeat
Assay type: toxicity, organism-based, Sprague-Dawley
Set-up: regimen Daily Repeat, gender Male, age 6-8 weeks
Conditions: in vivo, po, route oral GAVAGE, vehicle .5 % CMC; for ABSOLUTE LYMPHOCYTE / ABSOLUTE MONOCYTE / ABSOLUTE SEGMENTED NEUTROPHIL / BASOPHIL / EOSINOPHIL / ERYTHROCYTE COUNT / HEMATOCRIT / HEMOGLOBIN / LEUKOCYTE COUNT / LYMPHOCYTE / MEAN CORPUSCULAR HEMOGLOBIN / MEAN CORPUSCULAR HEMOGLOBIN CONCENTRATION / MEAN CORPUSCULAR VOLUME / MONOCYTE / NEUTROPHIL / NUCLEATED RED BLOOD CELLS / PLATELET COUNT / ABSOLUTE BASOPHIL / ABSOLUTE EOSINOPHIL: tissue Blood; for ALANINE AMINOTRANSFERASE / ALBUMIN / ALKALINE PHOSPHATASE / ASPARTATE AMINOTRANSFERASE / BLOOD UREA NITROGEN / CARBON DIOXIDE / CHLORIDE / CHOLESTEROL / CREATINE PHOSPHOKINASE / CREATININE / GLUCOSE / LACTATE DEHYDROGENASE / LIPASE / PHOSPHORUS / POTASSIUM / SODIUM / TOTAL BILIRUBIN / TOTAL PROTEIN / URIC ACID: tissue Plasma
[1] = 11 mg/kg, 120 h, dose level Low, time 5 day
[2] = 110 mg/kg, 72 h, dose level M1, time 3 day
[3] = 110 mg/kg, 120 h, dose level M1, time 5 day

## COc1ccc2c3c1O[C@H]1C[C@@H](O)C=C[C@@]31CCN(C)C2 [GALANTAMINE]
[1]
  ABSOLUTE LYMPHOCYTE: 13451.33 CELLS/uL
  ABSOLUTE MONOCYTE: 58.33 CELLS/uL
  ABSOLUTE SEGMENTED NEUTROPHIL: 1323.67 CELLS/uL
  BASOPHIL: 0%
  EOSINOPHIL: 0%
  ERYTHROCYTE COUNT: 5.81 x10E6/uL
  HEMATOCRIT: 35.73%
  HEMOGLOBIN: 14.27 G/DL
  LEUKOCYTE COUNT: 14.83 x10E3/uL
  LYMPHOCYTE: 90.33%
  MEAN CORPUSCULAR HEMOGLOBIN: 24.57 pg
  MEAN CORPUSCULAR HEMOGLOBIN CONCENTRATION: 39.93 G/DL
  MEAN CORPUSCULAR VOLUME: 61.57 fL
  MONOCYTE: 0.33%
  NEUTROPHIL: 9.33%
  NUCLEATED RED BLOOD CELLS: 0 /100WBC
  PLATELET COUNT: 1163.33 x10E3/uL
  ALANINE AMINOTRANSFERASE: 48.67 u/L
  ALBUMIN: 4.27 G/DL
  ALKALINE PHOSPHATASE: 399 u/L
  ASPARTATE AMINOTRANSFERASE: 74.67 u/L
  BLOOD UREA NITROGEN: 20.33 mg/dL
  CARBON DIOXIDE: 28.33 mmol/L
  CHLORIDE: 99.67 MEQ/L
  CHOLESTEROL: 76.67 mg/dL
  CREATINE PHOSPHOKINASE: 330.67 u/L
  CREATININE: 0.19 mg/dL
  GLUCOSE: 158.67 mg/dL
  LACTATE DEHYDROGENASE: 135 u/L
  LIPASE: 10 u/L
  PHOSPHORUS: 12.37 mg/dL
  POTASSIUM: 6.09 MEQ/L
  SODIUM: 144.2 MEQ/L
  TOTAL BILIRUBIN: 0.23 mg/dL
  TOTAL PROTEIN: 6.17 G/DL
  URIC ACID: 1.33 mg/dL
[2]
  ABSOLUTE BASOPHIL: 0 CELLS/uL
  ABSOLUTE EOSINOPHIL: 37.33 CELLS/uL
  ABSOLUTE LYMPHOCYTE: 14169 CELLS/uL
  ABSOLUTE MONOCYTE: 124.67 CELLS/uL
  ABSOLUTE SEGMENTED NEUTROPHIL: 769 CELLS/uL
  BASOPHIL: 0%
  EOSINOPHIL: 0.33%
  ERYTHROCYTE COUNT: 5.81 x10E6/uL
  HEMATOCRIT: 36.57%
  HEMOGLOBIN: 14.27 G/DL
  LEUKOCYTE COUNT: 15.1 x10E3/uL
  LYMPHOCYTE: 94%
  MEAN CORPUSCULAR HEMOGLOBIN: 24.57 pg
  MEAN CORPUSCULAR HEMOGLOBIN CONCENTRATION: 39 G/DL
  MEAN CORPUSCULAR VOLUME: 62.97 fL
  MONOCYTE: 0.67%
  NEUTROPHIL: 5%
  NUCLEATED RED BLOOD CELLS: 0 /100WBC
  PLATELET COUNT: 1366 x10E3/uL
  ALANINE AMINOTRANSFERASE: 64.33 u/L
  ALBUMIN: 4.03 G/DL
  ALKALINE PHOSPHATASE: 411.33 u/L
  ASPARTATE AMINOTRANSFERASE: 91 u/L
  BLOOD UREA NITROGEN: 16 mg/dL
  CARBON DIOXIDE: 33 mmol/L
  CHLORIDE: 102.67 MEQ/L
  CHOLESTEROL: 70.67 mg/dL
  CREATINE PHOSPHOKINASE: 247.67 u/L
  CREATININE: 0.2 mg/dL
  GLUCOSE: 131.33 mg/dL
  LACTATE DEHYDROGENASE: 252 u/L
  LIPASE: 8.33 u/L
  PHOSPHORUS: 11.67 mg/dL
  POTASSIUM: 7.08 MEQ/L
  SODIUM: 144.3 MEQ/L
  TOTAL BILIRUBIN: 0.23 mg/dL
  TOTAL PROTEIN: 5.5 G/DL
  URIC ACID: 1.43 mg/dL
[3]
  ABSOLUTE BASOPHIL: 0 CELLS/uL
  ABSOLUTE EOSINOPHIL: 67.67 CELLS/uL
  ABSOLUTE LYMPHOCYTE: 15229.33 CELLS/uL
  ABSOLUTE MONOCYTE: 0 CELLS/uL
  ABSOLUTE SEGMENTED NEUTROPHIL: 1603 CELLS/uL
  BASOPHIL: 0%
  EOSINOPHIL: 0.33%
  ERYTHROCYTE COUNT: 5.71 x10E6/uL
  HEMATOCRIT: 35.4%
  HEMOGLOBIN: 14.07 G/DL
  LEUKOCYTE COUNT: 16.9 x10E3/uL
  LYMPHOCYTE: 90%
  MEAN CORPUSCULAR HEMOGLOBIN: 24.67 pg
  MEAN CORPUSCULAR HEMOGLOBIN CONCENTRATION: 39.77 G/DL
  MEAN CORPUSCULAR VOLUME: 62.03 fL
  MONOCYTE: 0%
  NEUTROPHIL: 9.67%
  NUCLEATED RED BLOOD CELLS: 0 /100WBC
  PLATELET COUNT: 1316.67 x10E3/uL
  ALANINE AMINOTRANSFERASE: 48 u/L
  ALBUMIN: 4.1 G/DL
  ALKALINE PHOSPHATASE: 401.67 u/L
  ASPARTATE AMINOTRANSFERASE: 99 u/L
  BLOOD UREA NITROGEN: 14.33 mg/dL
  CARBON DIOXIDE: 24.67 mmol/L
  CHLORIDE: 101.67 MEQ/L
  CHOLESTEROL: 60.33 mg/dL
  CREATINE PHOSPHOKINASE: 541 u/L
  CREATININE: 0.27 mg/dL
  GLUCOSE: 132.67 mg/dL
  LACTATE DEHYDROGENASE: 653 u/L
  LIPASE: 11 u/L
  PHOSPHORUS: 13 mg/dL
  POTASSIUM: 6.92 MEQ/L
  SODIUM: 143.03 MEQ/L
  TOTAL BILIRUBIN: 0.23 mg/dL
  TOTAL PROTEIN: 5.77 G/DL
  URIC ACID: 1.8 mg/dL
